Experimental data: patent publication US20240156765A1, “METHODS OF NEUROPROTECTION AND USES THEREOF” (UNIVERSITY OF TENNESSEE RESEARCH FOUNDATION, priority 2020, published 2024)

Columns and labels:
[1] = system: Dutch belted rabbits; assay: Single-drop IOP-lowering efficacy of PRG eye drop formulations; assay type: in vivo
Method: At 24 hours after dosing, IOP is still reduced by >20%.
Moreover, the combined effect of all three layers of our W/O/W ME is critical for enhancing the efficacy of PRG. […] Using this same model, we will evaluate our optimized formulations from Test 1.1.
Research Design and Methods: Dutch belted rabbits (Envigo Rabbitry; formerly Covance) will be used in this single-dose design study. Rabbits from this rabbitry can have higher baseline IOP values than those purchased from other rabbitries. Rabbits (equally balanced between males and females) will be acclimated to handling and IOP measurements for at least seven days before initiation of the study. Slit-lamp biomicroscopic and fundoscopic examinations will be performed before and after the study. Our top three formulations from Test 1.1 will be tested in this model using our methods^12. The IOP of both eyes will be measured using a rebound tonometer (Tono-Pen AVIA Vet, Reichert) immediately before the formulation application (baseline, 8 am) and at hourly time intervals after application until the IOP returns to baseline. Using a sterile micropipette tip, thirty microliters of the formulation containing PRG ME or blank control will be instilled topically into one eye of each rabbit, while the fellow eye will receive the formulation vehicle, and therefore serve as controls. Rabbits will be dosed daily at 8 am for 21 days, and IOP collected at 8 am (immediately pre-dosing) and at the time at which the maximum IOP reduction is measured (Tmax) using our methods^12. Curves similar to FIG. 16 will be generated. Biocompatibility of the antioxidant-containing formulations will be assessed using with slit lamp biomicroscopy as in FIG. 17. The person performing the studies will be blinded regarding which eye receives the medicated formation and which one receives the blank control for each rabbit. Assuming a power of 80%, and a marginal difference in IOP outcome of 30%, we estimate that this study will require 10 rabbits. We will also evaluate these formulations in C57Bl/6J (B6) mice and cynomolgus monkeys, which will allow for species confirmation and comparison.

[2] = system: intraocular pressure (IOP); assay: IOP lowering by topically applied pregabalin without microemulsion (aqueous); assay type: in vivo
[3] = system: BXD29 mice; assay: Daily topical PRG ME in BXD29 mice (normal tension glaucoma model): IOP and optic nerve axons; assay type: in vivo
Text: Objective: An obstacle in this study is the in vivo assessment of any direct neuroprotective effects of PRG that are independent of IOP lowering. […] These characteristics make BXD29 ideal for evaluating the direct neuroprotective properties of PRG on RGCs by eliminating indirect effects that would be mediated through IOP reduction.
We have evidence to show, without wishing to be bound by theory, that topical dosing with our PRG ME is neuroprotective to RGC axons in the ON. We dosed BXD29 mice daily with PRG ME beginning at 5 weeks of age (FIG. 9A) before ON degeneration was marked. […] In contrast, ON from mice dosed with unmedicated ME had loss of axon profiles and increased areas of debris (FIG. 9C). The studies will evaluate the role of PRG as a RGC neuroprotectant and define its cellular mechanism of action.

[4] = PRG release from formulation; assay type: physicochemical; details: as an aqueous eye drop
[5] = target: CACNA2D1 (Homo sapiens, UniProt P54289); details: listed as PRG; cited from earlier work
[6] = system: γ-aminobutyric acid (GABA) receptors; details: cited from earlier work
[7] = not told; cited from earlier work
[8] = PRG in an oral solution; cited from earlier work
[9] = PRG in the absence of the ME (Carbopol 981 gel), single drop
[10] = topically applied PRG, aqueous / initial formulation without ME
[11] = topically applied PRG, aqueous / initial formulation without ME, listed as PRG

Chain of CACNA2D1 (P54289 25-1103): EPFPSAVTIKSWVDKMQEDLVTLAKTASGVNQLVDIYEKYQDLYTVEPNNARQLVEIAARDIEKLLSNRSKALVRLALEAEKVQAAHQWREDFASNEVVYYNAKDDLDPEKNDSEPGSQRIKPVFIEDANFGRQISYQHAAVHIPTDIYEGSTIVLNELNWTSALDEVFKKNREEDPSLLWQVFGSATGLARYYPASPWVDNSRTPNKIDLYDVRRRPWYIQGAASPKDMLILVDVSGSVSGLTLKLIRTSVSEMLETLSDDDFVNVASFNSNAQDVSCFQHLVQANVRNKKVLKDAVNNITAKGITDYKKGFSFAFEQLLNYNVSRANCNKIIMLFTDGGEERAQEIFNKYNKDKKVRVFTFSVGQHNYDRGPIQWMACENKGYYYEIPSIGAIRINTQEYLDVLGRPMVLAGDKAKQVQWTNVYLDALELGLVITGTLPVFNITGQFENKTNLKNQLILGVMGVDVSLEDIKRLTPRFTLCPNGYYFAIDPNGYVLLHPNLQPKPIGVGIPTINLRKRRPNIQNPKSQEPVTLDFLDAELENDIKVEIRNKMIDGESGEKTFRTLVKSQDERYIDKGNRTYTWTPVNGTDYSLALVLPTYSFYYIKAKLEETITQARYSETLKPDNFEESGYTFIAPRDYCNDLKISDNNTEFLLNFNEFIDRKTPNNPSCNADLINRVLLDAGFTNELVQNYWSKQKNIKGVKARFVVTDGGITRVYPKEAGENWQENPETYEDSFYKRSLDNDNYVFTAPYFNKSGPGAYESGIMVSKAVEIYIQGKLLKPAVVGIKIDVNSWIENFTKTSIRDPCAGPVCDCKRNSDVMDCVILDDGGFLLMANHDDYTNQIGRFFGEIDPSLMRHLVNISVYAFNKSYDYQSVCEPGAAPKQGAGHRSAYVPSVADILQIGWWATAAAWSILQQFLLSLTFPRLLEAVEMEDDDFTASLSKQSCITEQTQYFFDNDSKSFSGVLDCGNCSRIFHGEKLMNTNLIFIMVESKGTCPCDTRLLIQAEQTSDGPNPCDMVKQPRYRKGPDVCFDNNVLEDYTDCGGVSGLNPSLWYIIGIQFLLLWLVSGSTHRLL

Compound: CC(C)C[C@H](CN)CC(=O)O [pregabalin]
- AUC of IOP reduction ([1]; PRG in the absence of the ME): 38 mmHg·hr
- IOP reduction [1, 9]: 30%
- time at which IOP returns to baseline [1, 9]: 10 h
- IOP lowering, dose dependence ([1]; topical dosing with PRG, Dutch belted rabbits): dose dependent manner
- IOP lowering, dose dependence ([2]; topical dosing): dose dependent manner
- IOP reduction [2, 10]: 20%
- time at which IOP returns to baseline [2, 10]: ≤ 7 h
- IOP reduction [2, 11]: 17%
- time at which IOP returns to baseline [2, 11]: 6 h
- IOP lowering ([2]; without the microemulsion): about 20%
- time at which IOP returns to baseline ([2]; without the microemulsion): 8 to 10 h
- optic nerve (ON) axons ([3]; daily topical dosing for 6 weeks from 5 weeks of age): prevents degeneration of axons
- IOP response ([3]; topical dosing, up to 6 weeks daily): unresponsive
- PRG release time [4]: 3 h
- affinity for CACNA2D1 [5]: high affinity and specificity
- binding to GABA receptors [6]: does not bind
- membrane permeability [7]: high
- chemical stability [8]: > 1 year
